In patent publication US20120028897A1, “METHODS AND COMPOSITIONS FOR THE TREATMENT OF FLUID RETENTION DISORDERS” (priority 2008, published 2012):
Entries after “also recorded” stand apart in the source; their conditions may differ.

How the values were obtained:
[1] = Interconversion of huUgn A and B isomers in vitro (storage at −80° C.; pH 4, 50° C.); assay type: physicochemical; details: LC-MS at periodic intervals
Protocol: FIG. 2C is a graph showing the amount of “UgnA like” activity as a function of time in cells treated with either huUgnA and huUgnB. The A and B isomers (filled and open circles, respectively) interconvert slowly in vitro. Peptides were incubated at 50° C. in 1 mM citrate buffer (pH 4) for either 0, 24, or 48 hr. Samples were then diluted into bioassay medium, the pH was adjusted to 7.0, and activity was measured in the T84 cell bioassay. A huUgnA standard curve was generated in the same assay, and cyclic GMP responses were converted to recoveries of “UgnA-like” peptide by interpolation on this standard curve.
HPLC analysis and mass spectroscopy of Ugn isomers. The integrity and purity of huUgnA and B isomer preparations were confirmed by liquid chromatography/mass spectroscopy (LC-MS) analysis. The two Ugn isomers have different retention times on a reverse phase HPLC column (FIG. 1, dashed trace; huUgnA elutes ˜0.35 minutes before huUgnB). Separations were performed on a Hypersil Gold AQ 2.1×50 mm column from Thermo Fisher Scientific Inc (Waltham, Mass.) equilibrated in 98% buffer A (0.1% formic acid), 2% buffer B (85:10:5 Acetonitrile/Isopropyl Alcohol/5 mM NH4OAc pH 5.8) with a flow rate of 0.4 ml/min on an Acquity HPLC system. […]

anesthetized rats = test: Renal sodium excretion during and after iv peptide infusion in anesthetized rats; assay type: in vivo, rat
Protocol: Rats were not fasted prior to clearance experiments and ranged in weight from 250-340 g at the time of study. Anesthesia was induced with an intraperitoneal injection of pentobarbital sodium (55 mg/kg BW) and maintained at a surgical plane by intermittent intravenous supplementation. Core temperature was maintained at 37° C. by a servo-controlled, heated operating table. Animals breathed spontaneously through a PE240 cannula inserted into the trachea. A jugular vein was catheterized with PE50 cannula tubing for intravenous infusion of isotonic saline containing FITC-labeled inulin (0.4% W/V, Sigma, St Louis Mo.) and two PE10 cannulae, one for supplemental anesthetic and the other for peptide infusions (described below in the experimental protocol section). The ureters were exposed through a midline ventral incision and cannulated with PE10 tubing about one cm from each kidney. Urine was collected over 20 min periods and the volume estimated by weight. A femoral artery was cannulated with PE50 tubing for continuous measurement of arterial blood pressure and intermittent blood samples (50 μl), taken at the mid point of each urine collection.
All rats received a continuous intravenous infusion (10 μl/min/100 g BW) of isotonic saline containing FITC-labeled inulin for measurement of inulin clearance. Uncongugated FITC label and small inulin polymers were removed from the inulin solution by overnight dialysis against isotonic saline (SpectraPor 6 dialysis membrane, 1 kDa cutoff-limit, Spectrum Laboratories, Rancho Domingo, Calif.). Undissolved particulates were removed from the solution by filtration through a […] filter before each experiment (Steriflip, Millipore Inc. Billerica, Mass.). At least one hr was allowed for equilibration before the start of urine collections, at which point plasma inulin concentration had stabilized at an average value of 30±3 μg/ml.
Arterial blood pressure was measured with a pressure transducer connected to a cardiovascular analyzer (Model 50110, Stoelting Instruments Wood Dale, Ill.). Left renal blood flow was measured in some rats with a flow probe positioned on the left renal artery and connected to a blood flow monitor (model 1 PRB probe and model T420 monitor, Transonic Systems Inc. Ithaca N.Y.). Arterial pressure, heart rate, and renal blood flow were digitized with an A/D converter (Keithley instruments, Cleveland, Ohio Model KUSB 3100) for display and storage on a Windows-based personal computer using open layers data acquisition software (Dtx_Ez, Data Translation Inc, Marlboro, Mass.). Sodium and potassium concentrations in plasma and urine were measured by flame photometry (Model 943, Instrumentation Laboratory Co., Lexington Mass.). Glomerular filtration rate (GFR) was measured as the renal clearance rate of FITC-labeled inulin
After post-surgical equilibration (−60 min) and three 20 min control clearance periods, huUgnA or B was infused into the jugular vein at 10 μl/min over a 60 min period, followed by a return to isotonic saline for the remainder of the experiment. The infused doses of huUgnA were 12, 25, 50, 100, or 200 nmol/kg BW in a total of 38 rats; huUgnB doses were 9, 18, 35, 70, and 140 nmol/kg BW in 35 rats. A UgnA mimetic, E. coli STh (ST-core), was infused into a third group of 32 rats at doses of 17, 32, 66, 133, and 266 nmol/kg. Renal excretory responses to these infusions were slow to develop and long lasting, so clearance periods were continued for 2-3 hr after the termination of the peptide infusion. This protracted time course limited protocols to one dose of one peptide in each rat. A control group of 10 rats received isotonic saline at 10 μl/min in place of the peptide infusion, but was otherwise treated in the same way as the experimental groups.
The effects of combined infusions of huUgnA and B were investigated in two groups of rats that received 35 nmol/kg of huUgnB together with either 25 nmol/kg (n=5) or 100 nmol/kg of huUgnA (n=5). […]

[2] = huUgnB 35 nmol, Post-infuse, *** p<0.005 vs time control

CC(C)C[C@H](NC(=O)[C@@H]1CSSC[C@@H]2NC(=O)[C@H](CC(C)C)NC(=O)[C@H](CCC(=O)O)NC(=O)[C@@H](NC(=O)[C@H](CC(=O)O)NC(=O)[C@H](CC(=O)O)NC(=O)[C@@H](N)CC(N)=O)CSSC[C@H](NC(=O)[C@H](C)NC(=O)[C@H](C(C)C)NC(=O)[C@H](CC(N)=O)NC(=O)[C@H](C(C)C)NC2=O)C(=O)N[C@@H]([C@@H](C)O)C(=O)NCC(=O)N1)C(=O)O (single isomer, unassigned) [huUgnB, Asn Asp Asp Cys Glu Leu Cys Val Asn Val Ala Cys Thr Gly Cys Leu]
conversion from one isoform to the other during storage [1]: did not occur
net cumulative sodium excretion, co-infusion (anesthetized rats; huUgnA 25 nmol/kg combined with huUgnB 35 nmol/kg): did not produce an additive response; also recorded: not different from the natriuresis evoked by A25 or B35 alone
net cumulative sodium excretion, co-infusion (anesthetized rats; huUgnA 100 nmol/kg combined with huUgnB 35 nmol/kg): almost completely suppressed; also recorded: significantly less than the response to B35 alone
FENa (fractional sodium excretion) (anesthetized rats; huUgnB 9 nmol, Infuse): 0.09 ± 0.02 % of filtered
UNaV (sodium excretion) (anesthetized rats; huUgnB 9 nmol, Infusion): 134.6 ± 53 nEq/min/g KW
FENa (fractional sodium excretion) (anesthetized rats; huUgnB 9 nmol, Post-infuse): 0.21 ± 0.04 % of filtered
UNaV (sodium excretion) (anesthetized rats; huUgnB 9 nmol, Post-infuse): 195 ± 37 nEq/min/g KW
FENa (fractional sodium excretion) (anesthetized rats; huUgnB 9 nmol, Pre-infuse): 0.05 ± 0.01 % of filtered
UNaV (sodium excretion) (anesthetized rats; huUgnB 9 nmol, Pre-infuse): 67 ± 17 nEq/min/g KW
FENa (fractional sodium excretion) (anesthetized rats; huUgnB 18 nmol, Infuse): 0.12 ± 0.03 % of filtered
UNaV (sodium excretion) (anesthetized rats; huUgnB 18 nmol, Infusion): 155.2 ± 34 nEq/min/g KW
FENa (fractional sodium excretion) (anesthetized rats; huUgnB 18 nmol, Post-infuse): 0.42 ± 0.08 % of filtered
UNaV (sodium excretion) (anesthetized rats; huUgnB 18 nmol, Post-infuse, *** p<0.005 vs time control): 538 ± 81*** nEq/min/g KW
FENa (fractional sodium excretion) (anesthetized rats; huUgnB 18 nmol, Pre-infuse): 0.07 ± 0.01 % of filtered
UNaV (sodium excretion) (anesthetized rats; huUgnB 18 nmol, Pre-infuse): 83 ± 19 nEq/min/g KW
FENa (fractional sodium excretion) (anesthetized rats; huUgnB 35 nmol, Infuse): 0.27 ± 0.07 % of filtered
UNaV (sodium excretion) (anesthetized rats; huUgnB 35 nmol, Infusion): 229.4 ± 47 nEq/min/g KW
FENa (fractional sodium excretion) (anesthetized rats; [2]): 0.62 ± 0.10*** % of filtered
UNaV (sodium excretion) (anesthetized rats; [2]): 729 ± 73*** nEq/min/g KW
FENa (fractional sodium excretion) (anesthetized rats; huUgnB 35 nmol, Pre-infuse): 0.12 ± 0.02 % of filtered
UNaV (sodium excretion) (anesthetized rats; huUgnB 35 nmol, Pre-infuse): 132 ± 40 nEq/min/g KW
FENa (fractional sodium excretion) (anesthetized rats; huUgnB 70 nmol, Infuse): 0.24 ± 0.14 % of filtered
UNaV (sodium excretion) (anesthetized rats; huUgnB 70 nmol, Infusion): 285.7 ± 165 nEq/min/g KW
FENa (fractional sodium excretion) (anesthetized rats; huUgnB 70 nmol, Post-infuse, * p<0.05 vs time control): 0.52 ± 0.10* % of filtered
UNaV (sodium excretion) (anesthetized rats; huUgnB 70 nmol, Post-infuse, *** p<0.005 vs time control): 696 ± 151*** nEq/min/g KW
FENa (fractional sodium excretion) (anesthetized rats; huUgnB 70 nmol, Pre-infuse): 0.08 ± 0.03 % of filtered
UNaV (sodium excretion) (anesthetized rats; huUgnB 70 nmol, Pre-infuse): 87 ± 31 nEq/min/g KW
FENa (fractional sodium excretion) (anesthetized rats; huUgnB 140 nmol, Infuse): 0.18 ± 0.05 % of filtered
UNaV (sodium excretion) (anesthetized rats; huUgnB 140 nmol, Infusion): 212.1 ± 67 nEq/min/g KW
FENa (fractional sodium excretion) (anesthetized rats; huUgnB 140 nmol, Post-infuse, ** p<0.01 vs time control): 0.65 ± 0.11** % of filtered
UNaV (sodium excretion) (anesthetized rats; huUgnB 140 nmol, Post-infuse, *** p<0.005 vs time control): 906 ± 170*** nEq/min/g KW
FENa (fractional sodium excretion) (anesthetized rats; huUgnB 140 nmol, Pre-infuse): 0.08 ± 0.01 % of filtered
UNaV (sodium excretion) (anesthetized rats; huUgnB 140 nmol, Pre-infuse): 103 ± 8 nEq/min/g KW
ED50, net cumulative sodium excretion over three hours (anesthetized rats; infused over first hour, log agonist response curve, FIG. 6A): 19 nmol/kg
ED50, net cumulative sodium excretion (anesthetized rats; log(agonist) vs response fit, p<0.02): about 20 nmol UgnB/kg BW
UNaV time course, ANOVA vs control (anesthetized rats; post infusion periods after 18, 35, 70, and 140 nmol/kg (p<0.001 for all)): significant natriuretic response
doses producing significant natriuresis (net excretory values) (anesthetized rats; rat, in vivo): above 9 nmol
shape of natriuretic dose-response relationship (anesthetized rats; rat, in vivo): conventional
